In BindingDB's records for doi:10.1021/jm00185a027 (1981):

Target: Aldo-keto reductase family 1 member B1 (Oryctolagus cuniculus) (UniProt P15122)
Experiment: Binding affinity towards rabbit aldose reductase

CN(C)S(=O)(=O)c1ccc2oc3ccc(C(=O)O)cc3c(=O)c2c1 [7-Dimethylsulfamoyl-9-oxo-9H-xanthene-2-carboxylic acid] gave a Ki of 400 nM.
